Read-outs that look alike come from different tables or passages of the source.
Tests used:
Assay in all cases: biochemical
Design in all cases: KINOMEscan active site-directed competition binding assay (DiscoveRx), 456 kinases, per cent of control at 300 nM
Settings in all cases: read-out: Percent of Control (%)
AAK1 = AAK1 (Homo sapiens, UniProt Q2M2I8)
How it was run: (§1)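 Each compound is tested at 300 nmol/L against a panel of 456 kinases. Interaction is quantified by competition for the kinase active site.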

BMPR1A = BMPR1A (Homo sapiens, UniProt P36894)
How it was run: as §1

CAMKK2 = CAMKK2 (Homo sapiens, UniProt Q96RR4)
How it was run: as §1

CLK2 = CLK2 (Homo sapiens, UniProt P49760)
How it was run: as §1

DYRK1B = DYRK1B (Homo sapiens, UniProt Q9Y463)
How it was run: as §1

[1] = target: EGFR(L747-S752del, P753S) (Homo sapiens, UniProt P00533, DEL747-752/P753S)
How it was run: as §1

FGFR3 = FGFR3 (Homo sapiens, UniProt P22607)
How it was run: as §1

[2] = target: T1, JAK1(JH1domain-catalytic) (Homo sapiens, UniProt P23458)
T1 construct: JH1domain-catalytic
How it was run: as §1

KIT(A829P) = KIT(A829P) (Homo sapiens, UniProt P10721, A829P)
How it was run: as §1

KIT(D816H) = KIT(D816H) (Homo sapiens, UniProt P10721, D816H)
How it was run: as §1

LRRK2 = LRRK2 (Homo sapiens, UniProt Q5S007)
How it was run: as §1

MLCK = target: T2, MLCK (Homo sapiens, UniProt Q32MK0)
T2 construct: gene MYLK3
How it was run: as §1

NEK1 = NEK1 (Homo sapiens, UniProt Q96PY6)
How it was run: as §1

NIM1 = target: T3, NIM1 (Homo sapiens, UniProt Q8IY84)
T3 construct: gene NIM1K
How it was run: as §1

PFCDPK1(P.falciparum) = target: T4, PFCDPK1(P.falciparum) (Plasmodium falciparum, UniProt P62344)
T4 construct: gene CDPK1
How it was run: as §1

PRP4 = target: T5, PRP4 (Homo sapiens, UniProt Q13523)
T5 construct: gene PRPF4B
How it was run: as §1

ROCK2 = ROCK2 (Homo sapiens, UniProt O75116)
How it was run: as §1

SGK = target: T6, SGK (Homo sapiens, UniProt O00141)
T6 construct: gene SGK1
How it was run: as §1

WNK3 = WNK3 (Homo sapiens, UniProt Q9BYP7)
How it was run: as §1

YANK3 = target: T7, YANK3 (Homo sapiens, UniProt Q86UX6)
T7 construct: gene STK32C
How it was run: as §1

YSK1 = target: T8, YSK1 (Homo sapiens, UniProt O00506)
T8 construct: gene STK25
How it was run: as §1

Sequence of CLK2 (P49760 whole entry): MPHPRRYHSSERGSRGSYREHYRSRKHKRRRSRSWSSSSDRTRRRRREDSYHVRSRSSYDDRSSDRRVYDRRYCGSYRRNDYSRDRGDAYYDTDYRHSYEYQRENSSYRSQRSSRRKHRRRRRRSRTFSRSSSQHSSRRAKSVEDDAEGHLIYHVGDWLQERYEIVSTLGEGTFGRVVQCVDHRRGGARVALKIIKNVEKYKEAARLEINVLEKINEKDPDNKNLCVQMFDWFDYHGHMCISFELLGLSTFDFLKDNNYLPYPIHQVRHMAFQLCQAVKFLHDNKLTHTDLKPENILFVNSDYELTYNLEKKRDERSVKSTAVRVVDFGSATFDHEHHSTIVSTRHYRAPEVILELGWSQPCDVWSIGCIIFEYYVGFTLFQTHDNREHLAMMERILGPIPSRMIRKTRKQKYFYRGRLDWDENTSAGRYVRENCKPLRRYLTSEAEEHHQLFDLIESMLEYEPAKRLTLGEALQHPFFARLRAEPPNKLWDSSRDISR
T7 sequence (Q86UX6 whole entry): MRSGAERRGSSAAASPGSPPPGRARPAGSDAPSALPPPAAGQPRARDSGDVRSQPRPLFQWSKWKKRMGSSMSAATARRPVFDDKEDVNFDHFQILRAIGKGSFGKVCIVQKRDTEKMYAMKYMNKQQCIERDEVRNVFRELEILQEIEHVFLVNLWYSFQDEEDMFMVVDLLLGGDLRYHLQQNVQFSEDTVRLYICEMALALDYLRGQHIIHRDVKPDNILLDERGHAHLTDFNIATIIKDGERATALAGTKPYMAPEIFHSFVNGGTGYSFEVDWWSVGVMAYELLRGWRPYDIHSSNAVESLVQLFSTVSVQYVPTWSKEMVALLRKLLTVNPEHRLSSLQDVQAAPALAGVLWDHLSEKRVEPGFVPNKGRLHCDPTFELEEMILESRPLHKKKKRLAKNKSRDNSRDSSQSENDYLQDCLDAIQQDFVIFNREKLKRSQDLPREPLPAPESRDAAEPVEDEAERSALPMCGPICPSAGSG
Sequence of CAMKK2 (Q96RR4 whole entry): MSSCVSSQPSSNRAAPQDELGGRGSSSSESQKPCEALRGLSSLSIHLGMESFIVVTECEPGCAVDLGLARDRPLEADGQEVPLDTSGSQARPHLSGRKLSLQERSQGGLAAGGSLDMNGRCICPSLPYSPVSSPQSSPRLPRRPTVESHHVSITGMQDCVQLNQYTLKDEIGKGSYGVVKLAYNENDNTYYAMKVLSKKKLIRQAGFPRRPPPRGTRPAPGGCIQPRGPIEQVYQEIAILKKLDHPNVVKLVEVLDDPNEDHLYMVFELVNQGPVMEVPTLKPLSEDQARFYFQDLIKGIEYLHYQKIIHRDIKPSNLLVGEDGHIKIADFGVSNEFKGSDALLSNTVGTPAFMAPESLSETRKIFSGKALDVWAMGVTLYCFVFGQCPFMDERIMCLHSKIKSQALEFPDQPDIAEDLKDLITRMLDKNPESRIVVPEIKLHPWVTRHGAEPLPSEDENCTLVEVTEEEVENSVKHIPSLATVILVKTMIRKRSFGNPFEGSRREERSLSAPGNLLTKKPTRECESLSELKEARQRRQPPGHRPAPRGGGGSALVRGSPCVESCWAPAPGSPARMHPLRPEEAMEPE
T5 sequence (Q13523 whole entry): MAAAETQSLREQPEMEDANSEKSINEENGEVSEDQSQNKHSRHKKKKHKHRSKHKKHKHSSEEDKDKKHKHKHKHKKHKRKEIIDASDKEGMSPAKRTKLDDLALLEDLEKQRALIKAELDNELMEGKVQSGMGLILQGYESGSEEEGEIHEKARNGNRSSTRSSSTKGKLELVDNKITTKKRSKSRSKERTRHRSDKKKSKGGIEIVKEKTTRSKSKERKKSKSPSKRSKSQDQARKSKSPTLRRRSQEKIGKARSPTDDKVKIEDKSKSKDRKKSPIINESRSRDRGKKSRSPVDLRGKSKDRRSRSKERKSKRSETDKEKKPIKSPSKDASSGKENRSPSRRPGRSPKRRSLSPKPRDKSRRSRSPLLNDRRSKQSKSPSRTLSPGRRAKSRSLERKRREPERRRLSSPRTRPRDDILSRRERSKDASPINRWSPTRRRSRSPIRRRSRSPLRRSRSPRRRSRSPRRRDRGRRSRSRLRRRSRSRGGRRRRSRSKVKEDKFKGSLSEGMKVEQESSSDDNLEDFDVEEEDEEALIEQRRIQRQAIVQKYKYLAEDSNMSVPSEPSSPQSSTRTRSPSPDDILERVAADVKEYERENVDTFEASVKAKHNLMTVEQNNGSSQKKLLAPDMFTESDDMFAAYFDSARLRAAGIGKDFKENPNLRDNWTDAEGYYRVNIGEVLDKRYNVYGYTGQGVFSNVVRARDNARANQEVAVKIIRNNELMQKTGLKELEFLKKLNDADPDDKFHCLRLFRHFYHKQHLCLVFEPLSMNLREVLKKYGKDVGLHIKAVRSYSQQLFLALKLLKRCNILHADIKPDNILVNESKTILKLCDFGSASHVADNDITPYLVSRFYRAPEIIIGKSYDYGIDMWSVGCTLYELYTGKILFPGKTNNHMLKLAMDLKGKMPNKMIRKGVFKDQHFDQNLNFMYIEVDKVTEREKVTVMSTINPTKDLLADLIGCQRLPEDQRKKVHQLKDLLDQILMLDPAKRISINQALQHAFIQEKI
T2 sequence (Q32MK0 whole entry): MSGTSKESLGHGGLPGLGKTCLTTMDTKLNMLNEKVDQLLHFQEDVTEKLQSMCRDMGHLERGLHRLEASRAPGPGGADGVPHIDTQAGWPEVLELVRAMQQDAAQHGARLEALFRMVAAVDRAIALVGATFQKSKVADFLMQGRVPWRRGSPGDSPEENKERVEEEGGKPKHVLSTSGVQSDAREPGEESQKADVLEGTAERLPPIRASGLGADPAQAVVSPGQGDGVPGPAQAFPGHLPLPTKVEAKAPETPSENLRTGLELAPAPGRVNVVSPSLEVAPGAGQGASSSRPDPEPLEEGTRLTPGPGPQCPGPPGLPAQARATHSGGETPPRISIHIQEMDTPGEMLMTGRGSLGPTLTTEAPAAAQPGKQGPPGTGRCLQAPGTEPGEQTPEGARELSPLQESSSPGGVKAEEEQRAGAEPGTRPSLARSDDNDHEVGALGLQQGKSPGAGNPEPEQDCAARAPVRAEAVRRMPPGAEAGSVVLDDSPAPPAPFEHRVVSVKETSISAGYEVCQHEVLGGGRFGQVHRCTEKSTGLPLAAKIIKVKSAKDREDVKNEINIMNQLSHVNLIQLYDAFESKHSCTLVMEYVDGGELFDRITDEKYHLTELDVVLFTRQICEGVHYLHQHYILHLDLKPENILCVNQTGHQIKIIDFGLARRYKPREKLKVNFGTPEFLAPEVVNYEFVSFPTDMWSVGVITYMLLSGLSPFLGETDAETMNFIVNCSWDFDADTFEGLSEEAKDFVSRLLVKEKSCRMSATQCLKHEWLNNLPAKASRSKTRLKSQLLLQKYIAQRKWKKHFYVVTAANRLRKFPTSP
Sequence of AAK1 (Q2M2I8 whole entry): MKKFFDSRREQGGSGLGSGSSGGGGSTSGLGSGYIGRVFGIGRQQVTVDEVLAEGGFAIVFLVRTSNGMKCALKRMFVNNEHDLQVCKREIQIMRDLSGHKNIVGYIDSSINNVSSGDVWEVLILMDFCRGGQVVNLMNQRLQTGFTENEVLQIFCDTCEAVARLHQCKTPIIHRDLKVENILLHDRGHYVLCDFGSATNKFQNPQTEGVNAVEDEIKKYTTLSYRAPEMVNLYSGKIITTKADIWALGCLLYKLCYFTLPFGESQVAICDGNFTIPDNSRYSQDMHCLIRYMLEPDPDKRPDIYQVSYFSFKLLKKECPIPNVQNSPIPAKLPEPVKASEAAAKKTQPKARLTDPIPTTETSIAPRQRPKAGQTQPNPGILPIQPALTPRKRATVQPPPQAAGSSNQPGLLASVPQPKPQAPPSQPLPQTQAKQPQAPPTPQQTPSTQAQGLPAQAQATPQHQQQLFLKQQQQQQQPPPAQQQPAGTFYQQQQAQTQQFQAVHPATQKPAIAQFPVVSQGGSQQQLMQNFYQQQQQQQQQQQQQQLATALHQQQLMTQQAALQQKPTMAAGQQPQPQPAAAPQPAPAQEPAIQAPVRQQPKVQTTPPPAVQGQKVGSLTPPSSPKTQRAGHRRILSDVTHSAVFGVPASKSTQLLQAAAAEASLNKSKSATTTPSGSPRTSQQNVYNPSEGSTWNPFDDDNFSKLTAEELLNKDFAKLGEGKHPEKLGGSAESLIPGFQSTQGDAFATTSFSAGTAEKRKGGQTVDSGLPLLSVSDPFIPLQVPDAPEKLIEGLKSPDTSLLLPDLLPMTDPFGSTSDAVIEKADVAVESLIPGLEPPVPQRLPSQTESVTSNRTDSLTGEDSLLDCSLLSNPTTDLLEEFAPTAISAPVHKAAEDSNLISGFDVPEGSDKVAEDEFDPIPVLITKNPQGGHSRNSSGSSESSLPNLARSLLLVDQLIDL
T4 sequence (P62344 whole entry): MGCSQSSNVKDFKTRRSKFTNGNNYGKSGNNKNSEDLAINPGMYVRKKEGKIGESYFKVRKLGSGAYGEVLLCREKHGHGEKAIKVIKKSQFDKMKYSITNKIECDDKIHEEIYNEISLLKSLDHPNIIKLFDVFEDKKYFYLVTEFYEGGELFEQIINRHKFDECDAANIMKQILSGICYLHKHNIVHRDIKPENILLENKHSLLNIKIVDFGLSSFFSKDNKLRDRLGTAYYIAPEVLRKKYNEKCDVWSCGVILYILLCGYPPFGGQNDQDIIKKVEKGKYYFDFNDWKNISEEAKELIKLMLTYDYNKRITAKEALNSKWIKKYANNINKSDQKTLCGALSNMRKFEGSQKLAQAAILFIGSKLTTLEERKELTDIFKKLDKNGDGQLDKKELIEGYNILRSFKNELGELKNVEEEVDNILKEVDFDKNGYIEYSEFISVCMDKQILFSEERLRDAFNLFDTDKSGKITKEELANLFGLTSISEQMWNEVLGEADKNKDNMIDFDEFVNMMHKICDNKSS

Q: Which remaining binding at 0.3 µM (AAK1) does the source give for Cc1ncccc1Oc1sc(C(N)=O)c2c1-c1c(cnn1C)CC2 [T-474, 1-methyl-8-((2-methylpyridin-3-yl)oxy)-4,5-dihydro-1H-thieno[3,4-g]indazole-6-carboxamide] here?
A: 93%

Q: And the remaining binding at 0.3 µM (BMPR1A)?
A: 100%

Q: What about the remaining binding at 0.3 µM (CAMKK2) of the same molecule?
A: 100%

Q: What about the remaining binding at 0.3 µM (CLK2) of the same molecule?
A: 46%

Q: What about the remaining binding at 0.3 µM (DYRK1B) of the same molecule?
A: 24%

Q: And the remaining binding at 0.3 µM [1]?
A: 61%

Q: What about the remaining binding at 0.3 µM (FGFR3) of the same molecule?
A: 97%

Q: What about the remaining binding at 0.3 µM [2] of the same molecule?
A: 73%

Q: What about the remaining binding at 0.3 µM (KIT(A829P)) of the same molecule?
A: 99%

Q: What about the remaining binding at 0.3 µM (KIT(D816H)) of the same molecule?
A: 78%

Q: What about the remaining binding at 0.3 µM (LRRK2) of the same molecule?
A: 95%

Q: And the remaining binding at 0.3 µM (MLCK)?
A: 100%

Q: And the remaining binding at 0.3 µM (NEK1)?
A: 95%

Q: What about the remaining binding at 0.3 µM (NIM1) of the same molecule?
A: 63%

Q: What about the remaining binding at 0.3 µM (PFCDPK1(P.falciparum)) of the same molecule?
A: 100%

Q: What about the remaining binding at 0.3 µM (PRP4) of the same molecule?
A: 89%

Q: And the remaining binding at 0.3 µM (ROCK2)?
A: 81%

Q: And the remaining binding at 0.3 µM (SGK)?
A: 100%

Q: What about the remaining binding at 0.3 µM (WNK3) of the same molecule?
A: 100%

Q: And the remaining binding at 0.3 µM (YANK3)?
A: 100%

Q: And the remaining binding at 0.3 µM (YSK1)?
A: 94%

Q: Which results are given for O=C(/C=C/c1cnccc1-c1ccc(F)cc1)Nc1ccc(CCc2nnco2)cc1 [T-418, (2E)-3-(4-(4-fluorophenyl)pyridin-3-yl)-N-(4-(2-(1,3,4-oxadiazol-2-yl)ethyl)phenyl)acrylamide]?
A: remaining binding at 0.3 µM (AAK1; sheet T-418): 83%; remaining binding at 0.3 µM (BMPR1A; sheet T-418): 79%; remaining binding at 0.3 µM (CAMKK2; sheet T-418): 100%; remaining binding at 0.3 µM (CLK2; sheet T-418): 88%; remaining binding at 0.3 µM (DYRK1B; sheet T-418): 67%; remaining binding at 0.3 µM ([1]; sheet T-418): 87%; remaining binding at 0.3 µM (FGFR3; sheet T-418): 100%; remaining binding at 0.3 µM ([2]; sheet T-418): 69%; remaining binding at 0.3 µM (KIT(A829P); sheet T-418): 100%; remaining binding at 0.3 µM (KIT(D816H); sheet T-418): 74%; remaining binding at 0.3 µM (LRRK2; sheet T-418): 94%; remaining binding at 0.3 µM (MLCK; sheet T-418): 88%; remaining binding at 0.3 µM (NEK1; sheet T-418): 90%; remaining binding at 0.3 µM (NIM1; sheet T-418): 100%; remaining binding at 0.3 µM (PFCDPK1(P.falciparum); sheet T-418): 100%; remaining binding at 0.3 µM (PRP4; sheet T-418): 82%; remaining binding at 0.3 µM (ROCK2; sheet T-418): 92%; remaining binding at 0.3 µM (SGK; sheet T-418): 88%; remaining binding at 0.3 µM (WNK3; sheet T-418): 100%; remaining binding at 0.3 µM (YANK3; sheet T-418): 100%; remaining binding at 0.3 µM (YSK1; sheet T-418): 97%
